Consider 3 compounds from PMC9609824 (Molecules, 2022).

In series [1] the test system is CYP2C9 and CYP2C19. The conditions noted are these: metabolized by CYP2C9 and CYP2C19; cited from earlier work.
Where [2] appears, read: freeze–thaw stability (−80 °C, thawed at room temperature three times), High QC 1250.
[3] abbreviates: freeze–thaw stability (−80 °C, thawed at room temperature three times), Low QC 75.
Where [4] appears, read: short-term stability T0 (room temperature, immediately after preparation), High QC 1250.
Where [5] appears, read: short-term stability T0 (room temperature, immediately after preparation), Low QC 75.
The mark [6] stands for this setting: short-term stability T4 (freezer −80 °C, 4 h), High QC 1250.
Setting [7] is: short-term stability T4 (freezer −80 °C, 4 h), Low QC 75.
The mark [8] stands for this setting: short-term stability T24 (freezer −80 °C, 24 h), High QC 1250.
Setting [9] is: short-term stability T24 (freezer −80 °C, 24 h), Low QC 75.

Where two headings read alike, the source gives them in different places.

Take `Cc1cnc(C(=O)NCCc2ccc(S(=O)(=O)NC(=O)N[C@H]3CCC[C@@H](O)C3)cc2)cn1` (relative stereo) [3-cis-hydroxyglipizide]: in series [1], the “Share of glipizide metabolized to the inactive metabolite” value was 15%.
Turning to `Cc1cnc(C(=O)NCCc2ccc(S(=O)(=O)NC(=O)N[C@H]3CC[C@H](O)CC3)cc2)cn1` [4-trans-hydroxyglipizide], in series [1], the “Share of glipizide metabolized to the inactive metabolite” value is given as 71%.
Turning to `Cc1cnc(C(=O)NCCc2ccc(S(=O)(=O)NC(=O)NC3CCCCC3)cc2)cn1` [GLZ, glipizide], the “Accuracy (% Error)” value was −1.32% (autosampler 24 h, High QC 1250); 1.83% (autosampler 24 h, Low QC 75); −1.59% under setting [2]; 4.86% under setting [3]; −0.82% under setting [4]; 8.13% under setting [5]. Further, the “Accuracy (% Error)” value reads like this: under setting [6], 2.82%; under setting [7], −6.68%; under setting [8], 4.93%; under setting [9], −6.27%. In addition, the “Mean ± SD Measurable Conc.” value is, setting by setting: (autosampler 24 h, High QC 1250) 1233.47 ± 71.06 ng/mL; (autosampler 24 h, Low QC 75) 76.37 ± 2.27 ng/mL; under setting [2], 1230.17 ± 112.55 ng/mL; under setting [3], 78.65 ± 4.84 ng/mL; under setting [4], 1239.79 ± 68.22 ng/mL; under setting [5], 81.10 ± 2.06 ng/mL. The “Mean ± SD Measurable Conc.” value by setting is: under setting [6], 1285.25 ± 10.84 ng/mL; under setting [7], 69.99 ± 1.61 ng/mL; under setting [8], 1311.63 ± 30.52 ng/mL; under setting [9], 70.30 ± 2.90 ng/mL.
